{
  "source": "paper PMC11822746",
  "about": "“Nanoscale Hydrophobicity of Transport Barriers in the Nuclear Pore Complex as Compared with the Liquid/Liquid Interface by Scanning Electrochemical Microscopy” (Analytical Chemistry, 2025)",
  "key": {"[1]": {"test_system": "NPCs of micropore-supported nuclear envelope (NE)", "assay": "Steady-state SECM approach-curve measurement of NPC permeability to GRn", "format": "in vitro ADME, Xenopus laevis", "settings": "SECM approach curve at centre of micropore-supported NE patch, 10 μm-diameter micropipet, MIB; 8.6 μM GR25 or 130 μM GR5; finite element fit, homogeneous model; fit uncertainty ±20%", "protocol": "The nucleus was isolated from the stage VI oocyte of an adult female X. laevis frog (Ecocyte Bioscience, Austin, Texas) to spread the NE on a microporous Si3N4 membrane, as reported elsewhere.[24] The large nucleus (∼0.4 mm in diameter) was isolated in the isotonic 1.5% PVP solution of mock intracellular buffer (MIB) at pH 7.4. MIB contains 90 mM KCl, 10 mM NaCl, 2 mM MgCl2, 1.1 mM EGTA, 0.15 mM CaCl2, and 10 mM HEPES, where free Ca^2+ was buffered at the physiological level of ∼200 nM in oocytes.[39] The spread NE was adhered to the membrane treated with Cell-Tak (Corning, Corning, New York).\nA home-built SECM instrument[40] with a potentiostat (CHI 7042E, CH Instruments, Austin, Texas) was controlled by using a custom LabVIEW program (National Instruments, Austin, Texas).[41] Tapered micropipets were obtained from borosilicate glass capillaries (o.d./i.d. = 1.0 mm/0.58 mm, 10 cm in length) using a CO2-laser capillary puller (model P-2000 Sutter Instrument, Novato, California). […]\nWe employed DNNS-doped micropipets to measure the similar steady-state permeability of the NPCs to GRn. […] The strong transient response to GR25 is attributed to the dissociation of GR25 from the NPC as induced by an SECM tip and was investigated quantitatively by chronoamperometry below to confirm strong NPC–GR25 interactions. […]"}, "[2]": {"settings": "extra-thermodynamic assumption (tetraphenylarsonium/tetraphenylborate); cited from earlier work", "text": "We calibrated the potential of the NB phase against the aqueous phase by using an extra-thermodynamic assumption (Figure 3) to calculate the free energy change in GRn transfer, as discussed later. Specifically, it was assumed that the free energies of tetraphenylarsonium and tetraphenylborate transfer across the interface are identical.[36] […] Half-wave and formal potentials are identical for electrochemically reversible transfer of tetrabutylammonium."}},
  "data": [
    {"smiles": "N=C(N)NCCC[C@H](NC(=O)CNC(=O)[C@H](CCCNC(=N)N)NC(=O)CNC(=O)[C@H](CCCNC(=N)N)NC(=O)CNC(=O)[C@H](CCCNC(=N)N)NC(=O)CNC(=O)[C@H](CCCNC(=N)N)NC(=O)CNC(=O)[C@H](CCCNC(=N)N)NC(=O)CNC(=O)[C@H](CCCNC(=N)N)NC(=O)CNC(=O)[C@H](CCCNC(=N)N)NC(=O)CNC(=O)[C@H](CCCNC(=N)N)NC(=O)CNC(=O)[C@H](CCCNC(=N)N)NC(=O)CNC(=O)[C@H](CCCNC(=N)N)NC(=O)CNC(=O)[C@H](CCCNC(=N)N)NC(=O)CNC(=O)[C@H](CCCNC(=N)N)NC(=O)CNC(=O)[C@H](CCCNC(=N)N)NC(=O)CNC(=O)[C@H](CCCNC(=N)N)NC(=O)CNC(=O)[C@H](CCCNC(=N)N)NC(=O)CNC(=O)[C@H](CCCNC(=N)N)NC(=O)CNC(=O)[C@H](CCCNC(=N)N)NC(=O)CNC(=O)[C@H](CCCNC(=N)N)NC(=O)CNC(=O)[C@H](CCCNC(=N)N)NC(=O)CNC(=O)[C@H](CCCNC(=N)N)NC(=O)CNC(=O)[C@H](CCCNC(=N)N)NC(=O)CNC(=O)[C@H](CCCNC(=N)N)NC(=O)CNC(=O)[C@H](CCCNC(=N)N)NC(=O)CNC(=O)[C@H](CCCNC(=N)N)NC(=O)CN)C(=O)O", "note": "[GR25]", "values": [
      {"measurement": "steady-state permeability, kss, through the NE", "setting": "[1]", "value": "7.2 × 10^–3 cm/s"}
    ]},
    {"smiles": "CCCC[N+](CCCC)(CCCC)CCCC", "note": "[tetrabutylammonium]", "values": [
      {"measurement": "formal potential of transfer across the NB/water interface", "setting": "[2]", "value": 0.29, "unit": "V"}
    ]}
  ]
}
